Series [1] deals with T1, SERT (Rattus norvegicus, UniProt P31652).
T1 construct: 100 μl of tissue preparation (2 mg of brain stem membranes per well); tissue Bioreclamation IVT (Hicksville, N.Y.); host or cells: male Sprague-Dawley rat brain stem membranes
Description: SERT radioligand binding in rat midbrain ([3H]-Citalopram competition). Conditions: rat midbrain/brain stem membranes, [3H]-Citalopram, mean ± SEM; read-out: SERT (rat mid-brain-stem) Ki ± SEM. The protocol: (§1) Binding affinities of the analogue compounds were evaluated at the DAT and SERT in rat brain membranes, and sigma-1 in guinea pig brain membranes according to the following protocols.
SERT Radioligand Binding in Rat Midbrain
(§2) The tissue was centrifuged at 20,000 rpm for 10 min at 4° C. The pellet was suspended in cold buffer and centrifuged again using the same settings. The resulting pellet was resuspended in cold buffer at a concentration of 20 mg/mL OWW (original wet weight). On test day, all test compounds were freshly dissolved in 30% DMSO and 70% H2O to a stock concentration of 1 mM or 100 μM. When necessary, to assist the solubilization of compounds, 10 μl of glacial acetic acid was added along with the DMSO (in place of 10 μl final H2O volume). Each test compound was then diluted into 10 half-log serial dilutions using 30% DMSO vehicle. […] Non-specific binding was determined using 10 μL Fluoxetine HCl and total binding was determined with 30% DMSO vehicle. The reaction was started with the addition of the tissue. All compound dilutions were tested in triplicate and the reaction incubated for 60 min at room temperature. The reaction was terminated by filtration through Perkin Elmer Uni-Filter-96 GF/B, presoaked for 60 min in 0.3% polyethylenimine, using a Brandel 96-Well Plates Harvester Manifold (Brandel Instruments, Gaithersburg, Md.). The filters were washed 3 times with 3 mL (3×1 mL/well) of ice cold binding buffer. […] These analyses were performed using GraphPad Prism version 6.00 for Macintosh (GraphPad Software, San Diego, Calif.).

Series [2] in a line: Phase I metabolic stability in rat liver microsomes. Type of series: in vitro ADME. The settings on record: for Phase I in Liver Microsomes, Negative Control: rat liver microsomes lacking NADPH; for Phase I in Liver Microsomes, Rat: with NADPH, 10 μM compound, 0.5 mg/mL microsomes. The protocol:
Methods: Phase I metabolic stability assays were conducted in rat liver microsomes. For phase I metabolism, the reactions were carried out with 100 mM potassium phosphate buffer, pH 7.4, in the presence of NADPH regenerating system (1.3 mM NADPH, 3.3 mM glucose 6-phosphate, 3.3 mM MgCl2, 0.4 U/mL glucose-6-phosphate dehydrogenase, […] sodium citrate). Reactions in triplicate were initiated by addition of the liver microsomes to the incubation mixture (compound final concentration was 10 μM; 0.5 mg/mL microsomes). Compound disappearance was monitored via LC/MS/MS. […] The total run time for each analyte was 5.0 min.

The target in series [3] is T2, DAT (Rattus norvegicus, UniProt P23977).
T2 construct: 100 μl of tissue preparation (1.5 mg of brain striatum membranes per well); tissue Bioreclamation IVT (Hicksville, N.Y.); host or cells: male Sprague-Dawley rat brain striatum membranes
Description: DAT radioligand binding in rat striatum ([3H]-WIN35,428 competition). The settings on record: for SERT/DAT: ratio of SERT Ki to DAT Ki. The protocol: as §1
DAT Radioligand Binding in Rat Striatum
as §2, with “of 15” for “of 20”, “100 μM” for “100 μM.”, “[…] Indatraline” for “μL Fluoxetine HCl”, “tissue. […]” for “tissue. All compound dilutions were tested in triplicate and the reaction incubated for 60 min at room temperature. The reaction was terminated by filtration through Perkin Elmer Uni-Filter-96 GF/B, presoaked for 60 min in 0.3% polyethylenimine, using a Brandel 96-Well Plates Harvester Manifold (Brandel Instruments, Gaithersburg, Md.).”

Series [4] has as its target T3, σ1R (Cavia porcellus, UniProt Q60492).
T3 construct: tissue BioReclamation IVT (Hicksville, N.Y.); host or cells: male Hartley guinea pig brain cortex membranes
The experiment in a line: σ1R radioligand binding in guinea pig cortex ([3H]-(+)-Pentazocine competition). The settings on record: for σ1/DAT: ratio of σ1 to DAT affinity values; for σ1/SERT: ratio of σ1 to SERT affinity values. The protocol: as §1
σ1R Radioligand Binding in Guinea Pig Cortex
Male Hartley guinea pig cortices were dissected from freshly harvested brains (shipped cold in PBS buffer from BioReclamation IVT (Hicksville, N.Y.)) and frozen at −80° C. for future use. […] The supernatant was collected in a clean tube and the pellet re-suspended in 10 ml of cold buffer and centrifuged again (˜1,200 rpm) for 10 min at 4° C. […] The final pellet was suspended in ice-cold binding buffer at 50 mg/ml concentration. […] All test compounds were freshly dissolved in 30% DMSO and 70% H2O to a stock concentration of 1 mM or 100 μM. When necessary, to assist the solubilization of compounds, 10 μl of glacial acetic acid was added along with the DMSO (in place of 10 μl final H2O volume). Each test compound was then diluted into 10 half-log serial dilutions using 30% DMSO as the vehicle. […] Nonspecific binding was determined using either 10 μM PRE084 or 10 μM (+)-Pentazocine and total binding was determined with 30% DMSO vehicle (3% DMSO final concentration). […] The filters were washed 3 times with 3 ml (3×1 ml/well) of ice cold binding buffer.

Where [5] appears, read: rat striatum membranes, [3H]-WIN35,428, mean ± SEM, read-out: DAT (rat striatum) Ki ± SEM.

Like-named read-outs stand apart in the source and are kept apart here.

T2 sequence (P23977 whole entry): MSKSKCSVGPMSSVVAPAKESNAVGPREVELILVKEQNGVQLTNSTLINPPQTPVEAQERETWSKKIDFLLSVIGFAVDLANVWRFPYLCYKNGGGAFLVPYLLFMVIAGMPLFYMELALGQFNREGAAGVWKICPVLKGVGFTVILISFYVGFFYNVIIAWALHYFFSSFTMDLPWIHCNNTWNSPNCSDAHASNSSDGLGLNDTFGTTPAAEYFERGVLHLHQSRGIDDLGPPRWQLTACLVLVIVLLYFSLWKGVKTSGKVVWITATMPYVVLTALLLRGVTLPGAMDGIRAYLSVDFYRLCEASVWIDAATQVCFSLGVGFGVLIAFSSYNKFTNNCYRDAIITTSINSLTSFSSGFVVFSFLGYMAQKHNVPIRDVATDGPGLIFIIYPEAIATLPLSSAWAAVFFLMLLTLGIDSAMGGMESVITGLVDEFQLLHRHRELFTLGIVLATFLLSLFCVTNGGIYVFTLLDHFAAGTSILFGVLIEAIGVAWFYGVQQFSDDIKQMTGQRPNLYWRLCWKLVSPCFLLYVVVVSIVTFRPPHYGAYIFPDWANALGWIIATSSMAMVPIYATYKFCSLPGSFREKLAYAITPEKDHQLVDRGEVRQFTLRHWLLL
T3 sequence (Q60492 whole entry): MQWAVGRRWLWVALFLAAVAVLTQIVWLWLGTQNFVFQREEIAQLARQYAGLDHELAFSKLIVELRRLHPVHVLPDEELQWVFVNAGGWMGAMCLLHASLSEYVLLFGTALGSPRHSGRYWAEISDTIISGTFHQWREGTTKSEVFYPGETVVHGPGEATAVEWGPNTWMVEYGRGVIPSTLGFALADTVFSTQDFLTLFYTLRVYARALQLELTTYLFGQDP
T1 sequence (P31652 whole entry): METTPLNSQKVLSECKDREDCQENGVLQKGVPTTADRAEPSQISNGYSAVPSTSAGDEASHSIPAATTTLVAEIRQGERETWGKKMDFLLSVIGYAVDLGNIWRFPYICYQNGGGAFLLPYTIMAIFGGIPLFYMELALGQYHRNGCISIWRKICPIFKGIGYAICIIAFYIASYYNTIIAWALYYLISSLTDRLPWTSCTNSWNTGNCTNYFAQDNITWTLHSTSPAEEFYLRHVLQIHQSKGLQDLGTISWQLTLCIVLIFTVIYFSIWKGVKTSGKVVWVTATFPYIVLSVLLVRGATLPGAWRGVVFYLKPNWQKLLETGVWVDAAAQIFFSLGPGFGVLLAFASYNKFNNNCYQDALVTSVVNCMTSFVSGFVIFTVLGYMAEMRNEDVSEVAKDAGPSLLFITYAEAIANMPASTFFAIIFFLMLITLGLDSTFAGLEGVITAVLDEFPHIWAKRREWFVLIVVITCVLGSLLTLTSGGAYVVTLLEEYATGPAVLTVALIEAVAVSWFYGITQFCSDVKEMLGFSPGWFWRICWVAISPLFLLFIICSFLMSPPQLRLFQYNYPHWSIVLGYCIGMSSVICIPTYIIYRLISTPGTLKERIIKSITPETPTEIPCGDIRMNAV

What is called Ki is a dissociation constant, usually derived from enzyme kinetics or from competition with a known ligand. `Cl.Cl.OC(CNC1CCN(CCSC(c2ccc(F)cc2)c2ccc(F)cc2)CC1)Cc1ccccc1` (stereo not drawn) [JBG01-061, 1-((1-(2-((Bis(4-fluorophenyl)methyl)thio)ethyl)piperidin-4-yl)amino)-3-phenylpropan-2-ol]: the figures for the Ki in series [1] and in series [3] (setting [5]) were 0.0663 ± 0.00281 µM and 0.0477 ± 0.00262 µM, respectively. Moreover, the “Phase I in Liver Microsomes, Negative Control” value (“Phase I … Negative Control” for short) in series [2] (0 min) is 100%; in series [2] (60 min), 109%. Further, the “Phase I in Liver Microsomes, Rat” value is on record as 100% in series [2] (0 min), 83% in series [2] (30 min) and 69% in series [2] (60 min). Moreover, the SERT/DAT in series [3] was determined as 1.39. Besides, in series [4], the σ1/DAT was 1.84. The σ1/SERT in series [4] came to 1.33.
As to `Cl.Cl.Fc1ccc(CN2CCC(NCCSC(c3ccc(F)cc3)c3ccc(F)cc3)CC2)cc1` [JBG01-077, N-(2-((Bis(4-fluorophenyl)methyl)thio)ethyl)-1-(4-fluorobenzyl)piperidin-4-amine], the Ki is 0.277 ± 0.00594 µM in series [1] and 0.0255 ± 0.00695 µM in series [3] (setting [5]). Besides, the results for the “Phase I … Negative Control” value in series [2] (0 min) and in series [2] (60 min) were 100% and 111%, respectively. Besides, the “Phase I in Liver Microsomes, Rat” value amounted to 100% in series [2] (0 min), 88% in series [2] (30 min) and 70% in series [2] (60 min). In series [3], the SERT/DAT amounted to 10.86. Further, the σ1/DAT in series [4] turned out to be 0.52. Besides, the σ1/SERT in series [4] is 0.048.
For `Cl.Cl.Fc1ccc(C(SCCN2CCC(NCc3ccc(Cl)cc3)CC2)c2ccc(F)cc2)cc1` [JBG01-086, 1-(2-((Bis(4-fluorophenyl)methyl)thio)ethyl)-N-(4-chlorobenzyl)piperidin-4-amine], the Ki in series [1] was 0.395 ± 0.0566 µM. Also, the Ki in series [3] (setting [5]) was 0.0865 ± 0.0356 µM. The SERT/DAT in series [3] stood at 4.57. Also, in series [4], the σ1/DAT is reported as 0.72 and the σ1/SERT came to 0.16.
Take `O=C(c1ccc(F)cc1)N1CCC(NCCSC(c2ccc(F)cc2)c2ccc(F)cc2)CC1` [JBG02-028, (4-((2-((Bis(4-fluorophenyl)methyl)thio)ethyl)amino)piperidin-1-yl)(4-fluorophenyl)methanone]: the Ki in series [1] was 0.485 ± 0.032 µM. For the same compound, in series [2] (0 min), the “Phase I … Negative Control” value is on record as 100% and the “Phase I in Liver Microsomes, Rat” value turned out to be 100%. Moreover, in series [2] (30 min), the “Phase I in Liver Microsomes, Rat” value was found to be 40%. Also, in series [2] (60 min), the “Phase I … Negative Control” value is on record as 101% and the “Phase I in Liver Microsomes, Rat” value is reported as 24%. The “stability to Phase I metabolism (in words)” value in series [2] (rat liver microsomes fortified with NADPH) was “susceptibility”. For the same compound, in series [3], the inhibition constant (Ki) turned out to be 0.00724 ± 0.00078 µM and the SERT/DAT was 66.99. For the same compound, in series [4], the σ1/DAT is on record as 4.43 and the σ1/SERT was determined as 0.066.
For the compound `Cl.Cl.[O-][S+](CCNC1CCN(Cc2ccc(F)cc2)CC1)C(c1ccc(F)cc1)c1ccc(F)cc1` (stereo not drawn) [JBG02-054, N-(2-((Bis(4-fluorophenyl)methyl)sulfinyl)ethyl)-1-(4-fluorobenzyl)piperidin-4-amine], the values for the Ki in series [1] and in series [3] (setting [5]) were 0.37 ± 0.0237 µM and 0.0506 ± 0.0112 µM, respectively. Moreover, the “Phase I … Negative Control” value worked out at 100% in series [2] (0 min), 102% in series [2] (30 min) and 102% in series [2] (60 min). Moreover, the entries for the “Phase I in Liver Microsomes, Rat” value in series [2] (0 min), in series [2] (30 min) and in series [2] (60 min) were 100%, 100% and 95%, respectively. Also, in series [3], the SERT/DAT is 7.31. For the same compound, the σ1/DAT in series [4] is on record as 0.52. Moreover, the σ1/SERT in series [4] is given as 0.072.
For `CC(C)(C)CN1CCC(NCCSC(c2ccc(F)cc2)c2ccc(F)cc2)CC1` [JBG02-066, N-(2-((Bis(4-fluorophenyl)methyl)thio)ethyl)-1-neopentylpiperidin-4-amine], the inhibition constant Ki was determined as 0.947 ± 0.101 µM in series [1] and 0.279 ± 0.0394 µM in series [3] (setting [5]). For the same compound, the SERT/DAT in series [3] came to 3.39. The σ1/DAT in series [4] is on record as 1.13.
Consider `CC(C)(C)C(=O)N1CCC(NCC[S+]([O-])C(c2ccc(F)cc2)c2ccc(F)cc2)CC1` (stereo not drawn) [JBG02-072, 1-(4-((2-((Bis(4-fluorophenyl)methyl)sulfinyl)ethyl)amino)piperidin-1-yl)-2,2-dimethylpropan-1-one], for which the Ki was found to be 32 ± 6.76 µM in series [1] and 10.2 ± 3.61 µM in series [3] (setting [5]). Further, in series [3], the SERT/DAT is listed as 3.14. Also, the σ1/DAT in series [4] is 1.10.
Regarding `CC(C)(C)CN1CCC(NCC[S+]([O-])C(c2ccc(F)cc2)c2ccc(F)cc2)CC1` (stereo not drawn) [JBG02-074, N-(2-((Bis(4-fluorophenyl)methyl)sulfinyl)ethyl)-1-neopentylpiperidin-4-amine], the Ki in series [1] amounted to 6.99 ± 0.229 µM; in series [3] (setting [5]), 0.431 ± 0.0282 µM. Also, in series [3], the SERT/DAT is 16.22. For the same compound, in series [4], the σ1/DAT is recorded as 1.26.
As to `Fc1ccc(C(SCCNC2CCN(CC3CC3)CC2)c2ccc(F)cc2)cc1` [JBG02-080, N-(2-((bis(4-fluorophenyl)methyl)thio)ethyl)-1-(cyclopropylmethyl)piperidin-4-amine], the figures for the Ki in series [1] and in series [3] (setting [5]) were 1.6 ± 0.164 µM and 0.407 ± 0.065 µM, respectively. The SERT/DAT in series [3] amounted to 3.93. For the same compound, the σ1/DAT in series [4] is 0.66.
For the compound `O=C(C1CC1)N1CCC(NCCSC(c2ccc(F)cc2)c2ccc(F)cc2)CC1` [JBG02-083, (4-((2-((bis(4-fluorophenyl)methyl)thio)ethyl)amino)piperidin-1-yl)(cyclopropyl)methanone], the Ki in series [1] came to 1.01 ± 0.094 µM; in series [3] (setting [5]), 0.178 ± 0.035 µM. In series [3], the SERT/DAT was determined as 5.67. In addition, the σ1/DAT in series [4] was determined as 0.26.
Consider `CC(O)CN1CCC2(CCN(CC[S+]([O-])C(c3ccc(F)cc3)c3ccc(F)cc3)CC2)C1` (stereo not drawn) [RDS04-014], for which the Ki in series [1] was 0.617 ± 0.0548 µM; in series [3] (setting [5]), 0.449 ± 0.12 µM. Moreover, in series [3], the SERT/DAT is 1.37. Further, the σ1/DAT in series [4] is on record as 0.14. Moreover, in series [4], the σ1/SERT was determined as 0.11.

These data come from patent US11365195B2, “Atypical inhibitors of monoamine transporters; method of making; and use thereof” (THE UNITED STATES OF AMERICA, AS REPRESENTED BY THE …, priority 2017, dated 2022).
